Experimental data from US10208074B2, “Pyrazole compounds and method for making and using the compounds” (Rigel Pharmaceuticals, Inc., priority 2015, dated 2019).
Structures can show the parent of a compound that is named as a salt. Where two headings read alike, the source gives them in different places.

Key:
IL-23 (p19/p40) = assay: IL23-p19 ELISA, Dendritic, LPS (compound screening using DC cells); assay type: cell-based, Human
Outline: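 IL-23 in supernatants quantified by sandwich ELISA (anti-p19 capture, biotinylated anti-p40 detection, chemiluminescent readout) after 18 h LPS (1 μg/ml) stimulation. Cells were monocyte-derived DCs (GM-CSF/IL-4, 7 d), IFNγ-primed 24 h and given compound 1 h before LPS; viability by CellTiter Glo.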

IL-23p19 = assay: LPS induced IL23p19 in THP-1 cells (with IFNγ primed) assay; assay type: cell-based, Human
Outline: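 Readout is secreted IL-23p19, quantified by chemiluminescent sandwich ELISA after 18 h LPS (1 ug/mL) stimulation of THP-1 cells that had been IFNγ-primed (50 ng/mL, ~18 h) and given compound 1 h beforehand at 37 °C. EC50 derived by curve fit; cytotoxicity tracked with Cell Titer Glo.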

[1] = Homo sapiens, 18 h, PBMC-derived DC cells, IFNγ primed, LPS 1 μg/ml, 18 hours, 10 pt, read-out: IL23-p19 ELISA, Dendritic, LPS, 10 pt, EC50
[2] = Homo sapiens, THP-1, 18 h, THP-1 cells, IFNγ primed, LPS 1 ug/mL, 18 hours, 10 pt, read-out: IL23-p19 ELISA, THP1-IFNy, LPS, 10 pt EC50
[3] = PBMC-derived DC cells, IFNγ primed, LPS 1 μg/ml, 18 hours, 10 pt, read-out: IL23-p19 ELISA, Dendritic, LPS, 10 pt, EC50
[4] = THP-1 cells, IFNγ primed, LPS 1 ug/mL, 18 hours, 10 pt, read-out: IL23-p19 ELISA, THP1-IFNy, LPS, 10 pt EC50

EC50 (IL-23 (p19/p40); [1])	EC50 (IL-23p19; [2])	SMILES	further results
6.89 µM	0.0874 µM	COc1ccc(COCC(C)(C)OC(=O)n2cc(-c3nc(C(=O)Nc4cn(C)nc4-c4ccccn4)cs3)cn2)cc1 [II-6, 1-((4-methoxybenzyl)oxy)-2-methylpropan-2-yl 4-(4-((1-methyl-3-(pyridin-2-yl)-1H-pyrazol-4-yl)carbamoyl)thiazol-2-yl)-1H-pyrazole-1-carboxylate]	–
1.57 µM	0.617 µM	CCOCCn1cc(NC(=O)c2ccc(-c3cnn(COP(=O)(O)O)c3)o2)c(-c2ccccn2)n1 [Compound I-54, (4-(5-((1-(2-ethoxyethyl)-3-(pyridin-2-yl)-1H-pyrazol-4-yl)carbamoyl)furan-2-yl)-1H-pyrazol-1-yl)methyl dihydrogen phosphate]	–
0.304 µM	0.213 µM	O=C(Nc1cn(CCOCC(F)F)nc1-c1ccccn1)c1csc(-c2cn[nH]c2)n1 [II-122, N-(1-(2-(2,2-difluoroethoxy)ethyl)-3-(pyridin-2-yl)-1H-pyrazol-4-yl)-2-(1H-pyrazol-4-yl)thiazole-4-carboxamide]	–
0.0106 µM	0.0122 µM	CC(C)(C)C(=O)N1CC(n2cc(NC(=O)c3ccc(-c4cn[nH]c4)o3)c(-c3ccccn3)n2)C1 [Compound I-91, N-[1-{1-Pivaloylazetidin-3-yl}-3-(pyridine-2-yl)-1H-pyrazol-4-yl]-5-(1H-pyrazol-4-yl)furan-2-carboxamide, formate salt]	–
0.327 µM	0.392 µM	O=C(Nc1c[nH]nc1-c1ccccn1)c1ccc(-c2cn[nH]c2)o1 [Compound I-47, 5-(1H-pyrazol-4-yl)-N-(3-(pyridin-2-yl)-1H-pyrazol-4-yl)furan-2-carboxamide]	–
0.17 µM	0.243 µM	CCOCCn1cc(NC(=O)c2coc(-c3cn[nH]c3)n2)c(-c2ccccn2)n1 [III-3, N-(1-(2-ethoxyethyl)-3-(pyridin-2-yl)-1H-pyrazol-4-yl)-2-(1H-pyrazol-4-yl)oxazole-4-carboxamide]	–
–	–	CCO[C@H]1C[C@@H](n2cc(NC(=O)c3csc(-c4cnn(COP(=O)(O)O)c4)n3)c(-c3ccccn3)n2)C1 [II-83, (4-(4-((1-((1,3-cis)-3-ethoxycyclobutyl)-3-(pyridin-2-yl)-1H-pyrazol-4-yl)carbamoyl)thiazol-2-yl)-1H-pyrazol-1-yl)methyl dihydrogen phosphate]	EC50 (IL-23 (p19/p40); [3]): 0.241 µM; EC50 (IL-23p19; [4]): 0.0863 µM
0.0554 µM	0.0619 µM	CCO[C@H]1C[C@@H](n2cc(NC(=O)c3csc(-c4cn[nH]c4)n3)c(-c3ncccn3)n2)C1 [II-102, N-(1-((1,3-cis)-3-ethoxycyclobutyl)-3-(pyrimidin-2-yl)-1H-pyrazol-4-yl)-2-(1H-pyrazol-4-yl)thiazole-4-carboxamide]	–
0.0156 µM	0.018 µM	CCCC(=O)N1CC(n2cc(NC(=O)c3ccc(-c4cn[nH]c4)o3)c(-c3ccccn3)n2)C1 [Compound I-99, N-[1-{1-Butyrylazetidin-3-yl}-3-(pyridine-2-yl)-1H-pyrazol-4-yl]-5-(1H-pyrazol-4-yl)furan-2-carboxamide, formate salt]	–
0.537 µM	2.49 µM	O=C(Nc1cn(C2CCOCC2)nc1-c1nnco1)c1csc(-c2cn[nH]c2)n1 [II-75, N-(3-(1,3,4-oxadiazol-2-yl)-1-(tetrahydro-2H-pyran-4-yl)-1H-pyrazol-4-yl)-2-(1H-pyrazol-4-yl)thiazole-4-carboxamide]	–
26.6 µM	3.61 µM	COc1ccc(Cn2cc(-c3nc(C(=O)Nc4cn(C5CC(OC)C5)nc4-c4ccccn4)cs3)cn2)cc1 (stereo not shown) [II-51, 2-(1-(4-methoxybenzyl)-1H-pyrazol-4-yl)-N-(1-(3-methoxycyclobutyl)-3-(pyridin-2-yl)-1H-pyrazol-4-yl)thiazole-4-carboxamide]	–
–	–	Cn1cc(-c2ccc(C(=O)Nc3cn(CC(C)(C)O)nc3-c3ccccn3)o2)cn1 [Compound I-1, N-(1-(2-hydroxy-2-methylpropyl)-3-(pyridin-2-yl)-1H-pyrazol-4-yl)-5-(1-methyl-1H-pyrazol-4-yl)furan-2-carboxamide 2,2,2-trifluoroacetate]	EC50 (IL-23 (p19/p40); Homo sapiens, 18 h, read-out: IL23-p19 ELISA, Dendritic, LPS, 10 pt, EC50 (μM)): 3.73 µM; EC50 (IL-23p19; Homo sapiens, THP-1, 18 h, read-out: IL23-p19 ELISA, THP1-IFNy, LPS, 10 pt EC50 (μM)): 5.66 µM
–	–	CC(C)(C)OC(=O)N1CC(n2cc(NC(=O)c3ccc(-c4cn[nH]c4)o3)c(-c3ccccn3)n2)C1 [Compound I-74, tert-Butyl-3-[4-{5-(1H-pyrazole-4-yl)furan-2-carboxamido}-3-(pyridine-2-yl)-1H-pyrazol-1-yl]azetidine-1-carboxylate]	EC50 (IL-23 (p19/p40); [3]): 0.131 µM; EC50 (IL-23p19; [4]): 0.151 µM
0.924 µM	0.224 µM	O=C(Nc1cn(C2C=C(F)C2)nc1-c1ccccn1)c1csc(-c2cn[nH]c2)n1 (stereo not shown) [II-132, N-(1-(3-fluorocyclobut-2-en-1-yl)-3-(pyridin-2-yl)-1H-pyrazol-4-yl)-2-(1H-pyrazol-4-yl)thiazole-4-carboxamide]	–
0.0616 µM	0.135 µM	CCO[C@H]1C[C@H](n2cc(NC(=O)c3csc(-c4cn[nH]c4)n3)c(-c3ccccn3)n2)C1 [II-12, N-(1-((1,3-trans)-3-ethoxycyclobutyl)-3-(pyridin-2-yl)-1H-pyrazol-4-yl)-2-(1H-pyrazol-4-yl)thiazole-4-carboxamide]	–
27.3 µM	1.24 µM	CN(C)C(=O)n1cc(NC(=O)c2csc(-c3cn[nH]c3)n2)c(-c2ccccn2)n1 [II-125, N-(1-(dimethylcarbamoyl)-3-(pyridin-2-yl)-1H-pyrazol-4-yl)-2-(1H-pyrazol-4-yl)thiazole-4-carboxamide]	–
0.0158 µM	0.159 µM	CCO[C@H]1C[C@H](n2cc(NC(=O)c3ccc(-c4cn[nH]c4)o3)c(-c3ccccn3)n2)C1 [Compound I-27, N-(1-((1,3-trans)-3-ethoxycyclobutyl)-3-(pyridin-2-yl)-1H-pyrazol-4-yl)-5-(1H-pyrazol-4-yl)furan-2-carboxamide]	–
0.11 µM	0.173 µM	CCO[C@H]1C[C@@H](n2cc(NC(=O)c3ccc(-c4cn[nH]c4)o3)c(-c3cc(F)ccn3)n2)C1 [Compound I-148, N-(1-((1s,3s)-3-ethoxycyclobutyl)-3-(4-fluoropyridin-2-yl)-1H-pyrazol-4-yl)-5-(1H-pyrazol-4-yl)furan-2-carboxamide formate]	–
0.135 µM	0.0399 µM	O=C(Nc1cn(C2CCOCC2)nc1-c1ccccn1)c1coc(-c2cn[nH]c2)n1 [III-2, 2-(1H-pyrazol-4-yl)-N-(3-(pyridin-2-yl)-1-(tetrahydro-2H-pyran-4-yl)-1H-pyrazol-4-yl)oxazole-4-carboxamide]	–
2.2 µM	2.23 µM	O=C(Nc1cn(CCO)nc1-c1ncccn1)c1ccc(-c2cn[nH]c2)o1 [Compound I-15, N-(1-(2-hydroxyethyl)-3-(pyrimidin-2-yl)-1H-pyrazol-4-yl)-5-(1H-pyrazol-4-yl)furan-2-carboxamide]	–
